Measured values published in patent US7442501B2, “SQV nucleic acids and polypeptides” (Massachusetts Institute of Technology, priority 2002, dated 2008).

Key:
chondroitin synthase [1] = assay: GalNAcT (N-acetylgalactosamyl transferase) assay of chondroitin synthase activity in worm protein extracts; format: biochemical; settings: extract genotype sqv-5/sqv-5 (sqv-5(n3611))
Experimental: (§1) sqv-5(n3611), sqv-5(n3611)/hT2, and wild-type (N2) animals were used to prepare worm protein extracts. These extracts were tested for chondroitin synthase activity using standard methods, for example, in DeAngelis et al., (J. Biol. Chem. 27:24124-24129, 2000).
(§2) A desulfated chondroitin acceptor was used for the GalNAcT (N-acetylgalactosamyl transferase) assay. Desulfated and β-glucuronidase-treated chondroitin acceptor was used for the GlcAT (glucuronyl transferase) assay.
(§3) The enzymatic activity of SQV-5 was assayed as follows. SQV-5(n3611), sqv-5(n3611)/hT2, and wild-type N2 hermaphrodites were picked as L4 larvae by visual examination of the vulva using a dissecting microscope. The worms staged were allowed to grow for an additional twenty-three to twenty-seven hours at 22° C., re-examined, then transferred to 1.7-ml plastic tubes containing sterile water. The staged worms were washed once with water and twice with 50 mM Tris, pH 7.5, then frozen in a 50 μl volume using liquid nitrogen, and stored at −70° C.
(§4) Worm extracts were assayed for GIcAT glucoronosyltransferase activity by combining 1.3×10^5 cpm UDP-^3H-glucuronic acid donor (NEN), 6 μg β-glucuronidase-treated chondroitin acceptor, and 2.7 μg worm extract in a 25 μl reaction volume containing 0.05% Triton X-100, 10 mM MnCl2, and 100 μM ATP, pH 6.5. GalNAcT activity was detected by combining 1.3 to 3×10^5 cpm UDP-^3H-GalNAc donor (NEN), 12 μg chondroitin acceptor, and 6.7 μg worm extract in a 25 μl reaction volume containing 0.05% Triton X-100 and 10 mM MnCl2, pH 6.5. […] Pelleted material was resuspended in water and counted by liquid scintillation.
(§5) The chondroitin acceptor used was prepared as follows. […] Uronic acid concentration of both preparations was determined by the Carbazole method (Bitter, et al., Anal. Biochem. 4:330-334, 1962).

chondroitin synthase [2] = biological target: T1, chondroitin synthase (Caenorhabditis elegans, UniProt Q7Z1Z1); assay: as above; format: biochemical
T1 construct: wild-type (N2) animals were used to prepare worm protein extracts; from tissue; host or cells: whole C. elegans hermaphrodites (young adults), sonicated protein extract
T1 sequence (Q7Z1Z1 1-736): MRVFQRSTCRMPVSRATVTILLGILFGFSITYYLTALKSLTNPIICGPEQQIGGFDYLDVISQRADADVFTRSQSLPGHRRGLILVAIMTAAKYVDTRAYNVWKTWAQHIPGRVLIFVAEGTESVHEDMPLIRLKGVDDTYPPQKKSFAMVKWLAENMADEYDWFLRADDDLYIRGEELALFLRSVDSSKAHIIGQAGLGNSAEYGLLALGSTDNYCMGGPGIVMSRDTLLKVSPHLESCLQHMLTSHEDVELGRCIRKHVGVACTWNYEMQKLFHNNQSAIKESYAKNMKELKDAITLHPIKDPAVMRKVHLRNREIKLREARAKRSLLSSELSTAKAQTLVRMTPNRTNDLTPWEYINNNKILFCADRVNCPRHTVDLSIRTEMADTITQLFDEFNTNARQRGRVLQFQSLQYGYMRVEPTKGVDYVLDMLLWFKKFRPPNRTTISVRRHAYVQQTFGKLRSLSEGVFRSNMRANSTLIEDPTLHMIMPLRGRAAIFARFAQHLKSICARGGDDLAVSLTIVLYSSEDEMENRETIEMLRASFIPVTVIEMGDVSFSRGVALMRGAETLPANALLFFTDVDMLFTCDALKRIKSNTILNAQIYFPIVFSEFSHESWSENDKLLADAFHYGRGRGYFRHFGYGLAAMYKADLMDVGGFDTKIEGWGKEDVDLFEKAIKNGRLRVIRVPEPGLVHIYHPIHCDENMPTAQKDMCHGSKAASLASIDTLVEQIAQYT
Experimental: as §1, §2, §3, §4, §5

Q: Which results are given for `CC(=O)N[C@H]1[C@@H](OP(=O)(O)OP(=O)(O)OC[C@H]2O[C@@H](n3ccc(=O)[nH]c3=O)[C@H](O)[C@@H]2O)O[C@H](CO)[C@H](O)[C@@H]1O` [UDP-N-acetylgalactosamine]?
A: CPM (chondroitin synthase [1]): <0 CPM; CPM (chondroitin synthase [2]; extract genotype +/+ (wild-type)): 171 CPM; CPM (chondroitin synthase [2]; extract genotype +/sqv-5 (sqv-5(n3611)/hT2)): 134 CPM
